Source: ChEMBL document CHEMBL1201862, “PubChem BioAssay data set” (2004)
Active and inactive are the calls of the source.

Tests used:
INS1 = test: beta cell apoptosis inhibitors, cytokine rescue, dose response, luminescence, retest (AID 449756); assay type: functional, cell-based; conditions: Rattus norvegicus;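 further: cell death triggered by IL-1 beta plus TNF-alpha plus IFN-gamma mixture; protective hits raise ATP signal compared with cytokine alone wells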
[1] = molecular target: T1, Sentrin-specific protease 8 (Homo sapiens, UniProt Q96LD8); assay type: functional
T1 sequence (Q96LD8 whole entry): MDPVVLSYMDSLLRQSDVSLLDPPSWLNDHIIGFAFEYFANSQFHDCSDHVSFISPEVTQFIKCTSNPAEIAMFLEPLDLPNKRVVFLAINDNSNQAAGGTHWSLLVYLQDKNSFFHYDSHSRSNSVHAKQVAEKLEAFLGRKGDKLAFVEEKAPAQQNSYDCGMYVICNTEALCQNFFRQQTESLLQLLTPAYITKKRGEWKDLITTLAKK

[2] = molecular target: T2, Corticotropin-releasing factor receptor 2/Corticotropin-releasing factor-binding protein (Homo sapiens, UniProt P24387+Q13324); test: activators of CRF receptor 2 with binding protein – uHTS hits, confirmation (AID 602473); assay type: functional; conditions: read-out: EC50_Mean
T2 sequence (Q13324 whole entry): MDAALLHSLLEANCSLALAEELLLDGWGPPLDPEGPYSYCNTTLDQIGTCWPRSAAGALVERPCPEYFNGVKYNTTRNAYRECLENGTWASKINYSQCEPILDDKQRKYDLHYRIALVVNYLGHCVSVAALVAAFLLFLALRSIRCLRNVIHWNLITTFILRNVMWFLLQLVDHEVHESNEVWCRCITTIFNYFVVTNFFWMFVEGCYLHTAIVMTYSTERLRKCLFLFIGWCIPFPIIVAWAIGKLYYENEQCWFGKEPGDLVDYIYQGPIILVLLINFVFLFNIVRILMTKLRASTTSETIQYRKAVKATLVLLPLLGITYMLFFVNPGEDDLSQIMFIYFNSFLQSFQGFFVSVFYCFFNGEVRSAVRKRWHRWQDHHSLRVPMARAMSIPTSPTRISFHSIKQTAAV
T2 sequence (P24387 whole entry): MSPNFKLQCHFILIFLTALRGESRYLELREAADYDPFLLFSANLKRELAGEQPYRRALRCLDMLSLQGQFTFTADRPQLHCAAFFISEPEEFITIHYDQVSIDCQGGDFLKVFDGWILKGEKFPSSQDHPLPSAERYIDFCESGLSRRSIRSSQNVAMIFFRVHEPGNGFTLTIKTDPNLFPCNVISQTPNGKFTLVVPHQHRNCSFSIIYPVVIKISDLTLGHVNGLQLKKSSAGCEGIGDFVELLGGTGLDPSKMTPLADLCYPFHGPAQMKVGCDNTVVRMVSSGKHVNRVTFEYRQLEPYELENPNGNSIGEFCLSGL

[3] = molecular target: T1, Sentrin-specific protease 8; assay type: functional; remark: listed apart in the source
[4] = molecular target: SWI/SNF-related matrix-associated actin-dependent regulator of chromatin subfamily A member 2 (Homo sapiens, UniProt P51531); test: Luminescence-based cell-based high throughput dose response assay to identify activators of the function of SWI/SNF related, matrix associated, actin dependent regulator of chromatin, subfamily a, member 2 (SMARCA2, BRM).; assay type: functional
[5] = molecular target: T3, Polyadenylate-binding protein 1 (Homo sapiens, UniProt P11940); test: PABP1 MLLE–PAM2 binding inhibitor potency, dose response, biochemical, fluorescence polarization, FITC-PAM2 peptide (AID 602259); assay type: functional; conditions: read-out: IC50_Mean
X-box-binding protein 1 = molecular target: T4, X-box-binding protein 1 (Homo sapiens, UniProt P17861); assay type: functional, Cricetulus griseus;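 further: confirmatory dose-response counter-screen serving a CHOP assay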
T4 sequence (P17861 whole entry): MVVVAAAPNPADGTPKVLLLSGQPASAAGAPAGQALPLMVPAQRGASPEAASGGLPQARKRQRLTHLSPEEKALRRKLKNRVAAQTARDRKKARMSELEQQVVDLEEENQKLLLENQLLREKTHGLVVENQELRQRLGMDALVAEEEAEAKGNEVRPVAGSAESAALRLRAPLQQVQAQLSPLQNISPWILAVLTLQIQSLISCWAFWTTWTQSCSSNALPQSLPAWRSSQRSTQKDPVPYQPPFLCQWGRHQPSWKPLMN

[6] = Counterscreen for activators of the function of SWI/SNF related, matrix associated, actin dependent regulator of chromatin, subfamily a, member 2 (SMARCA2, BRM): Luminescence-based cell-based high throughput dose response assay to identify non-selective compounds using the VP16 reporter assay.; assay type: functional
[7] = molecular target: T3, Polyadenylate-binding protein 1; test: PABP1 MLLE–PAM2 interaction inhibitors, dose response, miRNA deadenylation inhibitor project, biochemical, fluorescence polarization, Cy5-PAM2 peptide, secondary (AID 602260); assay type: functional; conditions: read-out: IC50_Mean
Insulin-degrading enzyme [8] = molecular target: T5, Insulin-degrading enzyme (Homo sapiens, UniProt P14735); test: activators of recombinant IDE enzyme, dose response, counter-screen for IDE activator project, biochemical, fluorescence polarization (AID 588681)
T5 sequence (P14735 whole entry): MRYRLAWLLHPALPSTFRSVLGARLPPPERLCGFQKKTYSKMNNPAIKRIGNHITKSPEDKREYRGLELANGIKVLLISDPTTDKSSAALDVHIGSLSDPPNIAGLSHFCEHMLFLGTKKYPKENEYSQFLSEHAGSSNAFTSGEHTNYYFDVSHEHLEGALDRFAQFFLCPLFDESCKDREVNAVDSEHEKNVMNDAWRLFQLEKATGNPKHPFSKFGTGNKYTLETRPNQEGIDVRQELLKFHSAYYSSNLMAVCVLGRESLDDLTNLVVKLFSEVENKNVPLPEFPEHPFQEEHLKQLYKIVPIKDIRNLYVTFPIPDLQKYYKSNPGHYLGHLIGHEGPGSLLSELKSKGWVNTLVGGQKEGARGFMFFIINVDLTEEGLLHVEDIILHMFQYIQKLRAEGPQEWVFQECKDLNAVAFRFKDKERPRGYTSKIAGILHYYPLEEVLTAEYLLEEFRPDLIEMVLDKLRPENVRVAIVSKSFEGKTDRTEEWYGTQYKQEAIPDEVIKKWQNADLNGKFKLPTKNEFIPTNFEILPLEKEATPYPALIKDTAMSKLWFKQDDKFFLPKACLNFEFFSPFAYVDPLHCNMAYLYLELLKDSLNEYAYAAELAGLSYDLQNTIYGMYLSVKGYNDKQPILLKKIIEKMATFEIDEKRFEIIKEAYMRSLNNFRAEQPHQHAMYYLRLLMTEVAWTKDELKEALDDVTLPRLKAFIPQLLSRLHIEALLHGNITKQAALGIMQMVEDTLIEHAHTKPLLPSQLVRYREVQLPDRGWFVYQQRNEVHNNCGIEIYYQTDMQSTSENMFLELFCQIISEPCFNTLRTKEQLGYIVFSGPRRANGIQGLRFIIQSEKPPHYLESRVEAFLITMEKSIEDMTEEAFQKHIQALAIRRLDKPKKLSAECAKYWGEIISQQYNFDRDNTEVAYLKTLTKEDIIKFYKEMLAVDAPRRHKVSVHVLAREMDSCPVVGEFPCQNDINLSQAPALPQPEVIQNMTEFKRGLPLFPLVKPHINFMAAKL

HEK293 [9] = test: HEK cell cytotoxicity by LDH release, dose response, cytotoxicity control for IDE activator project, fluorescence, HEK cells (AID 588440); assay type: functional, cell-based; conditions: Homo sapiens;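 further: cytotoxicity by LDH release measuring loss of membrane integrity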
Insulin-degrading enzyme [10] = molecular target: T5, Insulin-degrading enzyme; test: activators of endogenous IDE in HEK cells, dose response, cell-based, fluorescence polarization (AID 588439); assay type: functional
HEK293 [11] = test: optical interference in Abeta FP readout, dose response, artefact control for IDE activator project, biochemical, fluorescence polarization (AID 588442); assay type: functional, cell-based; conditions: Homo sapiens
Beta-lactamase [12] = molecular target: Beta-lactamase (Pseudomonas aeruginosa, UniProt Q79MP6);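 further: biochemical dose-response test of metallo-beta-lactamase enzyme inhibition, read out by epi-absorbance; purified recombinant IMP-1 metallo-beta-lactamase with nitrocefin as substrate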
Beta-lactamase [13] = molecular target: Beta-lactamase (Salmonella choleraesuis (strain SC-B67), UniProt Q5J463)
[14] = miR-122 activators in hepatoma reporter cells, dose response, cell-based, Huh7 psiCHECK-miR122, Renilla luciferase, cherry-picked (AID 651956); assay type: functional;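 further: huh7 hepatoma cells stably carrying a psiCHECK-2 miR-122 sensor plasmid; renilla luciferase signal reporting endogenous miR-122 activity after 48 h compound exposure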
[15] = molecular target: 5-hydroxytryptamine receptor 2A (Mus musculus, UniProt P35363); assay type: functional, cell-based;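 further: CHO-K1 cells with tagged receptor and beta-arrestin; agonist potency measured as compound-induced activation of the receptor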
Mu-type opioid receptor = Mu-type opioid receptor (Homo sapiens, UniProt P35372); assay type: functional, cell-based;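 further: U2OS cells with beta-arrestin recruitment to OPRM1 by beta-gal complementation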
[16] = molecular target: Voltage-gated inwardly rectifying potassium channel KCNH2 (Homo sapiens, UniProt Q12809); conditions: Potency;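 further: confirmatory quantitative high-throughput screen measuring inhibition of hERG channel activity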
[17] = molecular target: DNA repair and recombination protein RAD54-like (Homo sapiens, UniProt Q92698); test: inhibitors of human RAD54 branch migration, confirmation, biochemical, fluorescence, cherry-picked samples, dose series (AID 651657); assay type: functional
[18] = cytotoxicity toward NIH3T3 fibroblasts, dose response, counter-screen, cell-based, ATP luminescence, mouse fibroblasts (AID 2010); assay type: functional;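 further: cells exposed to compound for about 90 hours before reading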
[19] = cytotoxicity toward DRD oncogenic fibroblasts, dose response, cell-based, non-viral oncogenic, luminescence (AID 1934); assay type: functional; conditions: Homo sapiens
[20] = Luminescence Cell-Based Dose Response HTS to Identify Activators of Luciferase Translation or Activity in H4 […] Cells. [Related pubchem assays: 1829 (Project Summary), 1814 (Primary HTS)]; assay type: functional
[21] = molecular target: T6, DNA repair protein RAD52 homolog (Homo sapiens, UniProt P43351); assay type: functional, biochemical
T6 sequence (P43351 whole entry): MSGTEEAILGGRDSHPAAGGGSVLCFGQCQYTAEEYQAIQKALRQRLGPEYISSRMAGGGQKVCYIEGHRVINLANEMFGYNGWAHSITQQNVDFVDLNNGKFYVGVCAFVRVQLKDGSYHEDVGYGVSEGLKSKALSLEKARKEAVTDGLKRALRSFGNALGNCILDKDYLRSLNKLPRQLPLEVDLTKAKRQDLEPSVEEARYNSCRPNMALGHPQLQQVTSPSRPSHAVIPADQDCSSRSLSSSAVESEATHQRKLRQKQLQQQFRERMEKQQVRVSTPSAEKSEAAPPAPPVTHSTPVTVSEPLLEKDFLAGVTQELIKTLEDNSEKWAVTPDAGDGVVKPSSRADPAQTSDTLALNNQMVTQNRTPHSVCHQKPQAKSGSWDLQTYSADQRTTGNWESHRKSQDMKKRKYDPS

cells [22] = assay type: functional, cell-based
BJ [23] = test: cytotoxicity toward BJ-TERT fibroblasts, dose response, cell-based, RAS-independent, luminescence (AID 1933); assay type: functional; conditions: Homo sapiens
cells [24] = assay type: functional, cell-based; remark: listed apart in the source
BJ [25] = test: cells; assay type: functional, cell-based; conditions: Homo sapiens
[26] = inhibitors of intracellular T. cruzi replication, confirmation, NIH3T3 host cells, beta-gal luminescence (AID 2044); assay type: functional, cell-based;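 further: intracellular parasites grown in NIH/3T3 mouse fibroblasts as host cells; luminescent beta-galactosidase reporter signal from transgenic T. cruzi replicating inside host cells; inhibitors lower the luminescence signal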
[27] = Luminescence Cell-Based Dose Confirmation HTS to Identify Activators of 5'UTR Stem-Loop Driven Alpha-Synuclein mRNA Translation in H4 Neuroglioblastoma Cells. [Related pubchem assays: 1829 (Project Summary), 1814 (Primary HTS)]; assay type: functional
BJ [28] = test: cytotoxicity toward BJ-TERT-LT-ST fibroblasts, dose response, cell-based, RAS-independent, luminescence (AID 1935); assay type: functional; conditions: Homo sapiens;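 further: BJ fibroblasts immortalized with TERT plus LT and ST oncogenes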
H4 = test: Luminescence Cell-Based Dose Response HTS to Identify Activators of 5'UTR Stem-Loop Driven Prion Protein mRNA Translation in H4 Neuroglioblastoma Cells. [Related pubchem assays: 1829 (Project Summary), 1814 (Primary HTS)]; assay type: functional; conditions: Homo sapiens
[29] = MDA-MB-231 cell growth inhibition, dose response, cytotoxicity control for RAD54 inhibitor project, CellTiter-Glo luminescence, cherry-pick (AID 651692); assay type: functional, cell-based

T3 sequence (P11940 whole entry): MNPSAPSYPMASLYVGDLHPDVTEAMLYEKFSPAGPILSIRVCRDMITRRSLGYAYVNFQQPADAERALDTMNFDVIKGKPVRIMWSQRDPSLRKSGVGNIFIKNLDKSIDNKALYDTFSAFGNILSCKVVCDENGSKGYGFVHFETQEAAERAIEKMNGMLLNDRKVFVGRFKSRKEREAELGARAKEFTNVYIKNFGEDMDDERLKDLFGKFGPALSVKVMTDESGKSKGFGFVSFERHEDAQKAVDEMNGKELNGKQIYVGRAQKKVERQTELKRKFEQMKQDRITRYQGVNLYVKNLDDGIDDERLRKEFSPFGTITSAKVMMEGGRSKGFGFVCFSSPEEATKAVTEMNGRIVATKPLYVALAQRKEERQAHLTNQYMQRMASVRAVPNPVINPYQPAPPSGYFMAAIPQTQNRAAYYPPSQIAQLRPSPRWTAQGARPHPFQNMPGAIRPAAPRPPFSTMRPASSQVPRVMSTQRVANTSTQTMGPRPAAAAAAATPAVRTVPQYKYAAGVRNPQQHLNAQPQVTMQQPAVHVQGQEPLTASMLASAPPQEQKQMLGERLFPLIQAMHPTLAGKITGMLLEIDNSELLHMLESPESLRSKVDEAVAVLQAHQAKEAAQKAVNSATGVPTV
Sequence of SWI/SNF-related matrix-associated actin-dependent regulator of chromatin subfamily A member 2 (P51531 whole entry): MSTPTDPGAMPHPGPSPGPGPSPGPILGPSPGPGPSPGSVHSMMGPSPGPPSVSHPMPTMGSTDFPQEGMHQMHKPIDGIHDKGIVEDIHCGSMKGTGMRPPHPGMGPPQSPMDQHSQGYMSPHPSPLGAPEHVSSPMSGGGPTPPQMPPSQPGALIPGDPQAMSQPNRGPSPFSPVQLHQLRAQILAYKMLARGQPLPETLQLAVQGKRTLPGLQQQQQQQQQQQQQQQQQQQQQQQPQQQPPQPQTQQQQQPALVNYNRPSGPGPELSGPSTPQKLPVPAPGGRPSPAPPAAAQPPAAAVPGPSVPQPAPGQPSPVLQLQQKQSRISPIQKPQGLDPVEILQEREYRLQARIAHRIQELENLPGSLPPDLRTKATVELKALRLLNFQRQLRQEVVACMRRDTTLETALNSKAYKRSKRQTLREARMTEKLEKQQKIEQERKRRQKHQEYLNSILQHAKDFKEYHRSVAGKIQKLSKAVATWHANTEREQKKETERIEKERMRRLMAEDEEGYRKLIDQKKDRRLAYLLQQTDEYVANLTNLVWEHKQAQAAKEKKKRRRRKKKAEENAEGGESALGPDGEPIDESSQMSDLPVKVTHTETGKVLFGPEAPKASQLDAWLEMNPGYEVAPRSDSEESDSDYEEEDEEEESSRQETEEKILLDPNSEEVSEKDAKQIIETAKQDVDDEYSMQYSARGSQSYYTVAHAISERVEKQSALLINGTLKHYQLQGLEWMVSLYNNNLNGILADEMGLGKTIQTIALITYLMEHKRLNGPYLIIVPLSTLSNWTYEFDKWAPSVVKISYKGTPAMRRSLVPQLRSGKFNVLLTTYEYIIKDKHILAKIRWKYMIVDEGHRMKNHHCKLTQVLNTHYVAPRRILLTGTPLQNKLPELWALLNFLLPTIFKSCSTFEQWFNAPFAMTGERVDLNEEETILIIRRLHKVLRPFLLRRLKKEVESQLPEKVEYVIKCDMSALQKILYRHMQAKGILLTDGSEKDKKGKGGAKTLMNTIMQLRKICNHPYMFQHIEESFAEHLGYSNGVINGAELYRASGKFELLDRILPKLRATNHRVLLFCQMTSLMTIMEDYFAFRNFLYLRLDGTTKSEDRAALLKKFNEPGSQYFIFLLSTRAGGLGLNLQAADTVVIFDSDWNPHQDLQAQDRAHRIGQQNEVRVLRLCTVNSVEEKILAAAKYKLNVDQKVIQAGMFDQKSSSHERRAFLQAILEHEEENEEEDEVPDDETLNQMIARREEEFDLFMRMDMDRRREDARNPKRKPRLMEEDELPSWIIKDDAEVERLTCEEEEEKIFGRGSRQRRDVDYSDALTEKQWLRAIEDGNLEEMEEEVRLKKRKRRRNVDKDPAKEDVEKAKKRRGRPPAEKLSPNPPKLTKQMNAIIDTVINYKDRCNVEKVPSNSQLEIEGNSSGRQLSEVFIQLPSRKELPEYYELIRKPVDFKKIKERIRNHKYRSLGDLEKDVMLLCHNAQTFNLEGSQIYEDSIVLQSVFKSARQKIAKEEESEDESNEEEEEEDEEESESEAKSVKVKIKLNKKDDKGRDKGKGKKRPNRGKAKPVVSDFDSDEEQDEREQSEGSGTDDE
Sequence of Voltage-gated inwardly rectifying potassium channel KCNH2 (Q12809 whole entry): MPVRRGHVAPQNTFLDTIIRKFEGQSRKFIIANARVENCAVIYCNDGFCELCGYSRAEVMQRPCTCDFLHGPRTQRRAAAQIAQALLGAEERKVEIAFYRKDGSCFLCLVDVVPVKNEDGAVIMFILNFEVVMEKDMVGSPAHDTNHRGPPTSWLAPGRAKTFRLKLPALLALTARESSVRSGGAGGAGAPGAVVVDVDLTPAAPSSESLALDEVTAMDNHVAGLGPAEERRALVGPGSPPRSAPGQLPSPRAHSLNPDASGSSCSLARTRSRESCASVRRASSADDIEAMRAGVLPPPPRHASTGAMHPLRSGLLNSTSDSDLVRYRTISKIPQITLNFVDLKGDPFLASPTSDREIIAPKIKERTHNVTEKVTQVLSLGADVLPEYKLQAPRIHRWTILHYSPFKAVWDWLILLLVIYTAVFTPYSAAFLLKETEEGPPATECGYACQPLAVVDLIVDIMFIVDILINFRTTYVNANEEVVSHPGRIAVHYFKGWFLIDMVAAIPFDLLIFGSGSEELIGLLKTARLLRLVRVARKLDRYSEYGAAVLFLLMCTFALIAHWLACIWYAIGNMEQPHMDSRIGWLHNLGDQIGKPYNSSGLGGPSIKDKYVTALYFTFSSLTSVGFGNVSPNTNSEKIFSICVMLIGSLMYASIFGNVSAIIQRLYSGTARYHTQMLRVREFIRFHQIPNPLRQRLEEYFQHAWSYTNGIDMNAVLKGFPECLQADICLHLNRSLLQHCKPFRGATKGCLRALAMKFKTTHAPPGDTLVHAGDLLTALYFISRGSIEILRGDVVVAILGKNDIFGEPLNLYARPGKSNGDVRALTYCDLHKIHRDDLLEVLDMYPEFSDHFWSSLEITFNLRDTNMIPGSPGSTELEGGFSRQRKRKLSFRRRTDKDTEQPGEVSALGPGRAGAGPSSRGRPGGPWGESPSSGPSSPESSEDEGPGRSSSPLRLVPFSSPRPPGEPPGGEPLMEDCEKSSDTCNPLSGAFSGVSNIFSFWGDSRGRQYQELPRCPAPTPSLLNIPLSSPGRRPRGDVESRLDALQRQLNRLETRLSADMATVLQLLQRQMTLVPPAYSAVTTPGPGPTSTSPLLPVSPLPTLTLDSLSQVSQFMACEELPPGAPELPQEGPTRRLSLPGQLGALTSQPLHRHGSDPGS
Sequence of Beta-lactamase (Pseudomonas aeruginosa, UniProt Q79MP6) (Q79MP6 whole entry): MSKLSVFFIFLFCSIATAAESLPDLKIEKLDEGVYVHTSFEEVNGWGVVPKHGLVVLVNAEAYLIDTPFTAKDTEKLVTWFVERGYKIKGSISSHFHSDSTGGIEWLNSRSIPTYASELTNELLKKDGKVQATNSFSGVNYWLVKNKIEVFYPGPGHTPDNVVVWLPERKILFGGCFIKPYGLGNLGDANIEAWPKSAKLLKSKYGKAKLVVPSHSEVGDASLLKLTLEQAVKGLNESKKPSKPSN
Sequence of Mu-type opioid receptor (P35372 whole entry): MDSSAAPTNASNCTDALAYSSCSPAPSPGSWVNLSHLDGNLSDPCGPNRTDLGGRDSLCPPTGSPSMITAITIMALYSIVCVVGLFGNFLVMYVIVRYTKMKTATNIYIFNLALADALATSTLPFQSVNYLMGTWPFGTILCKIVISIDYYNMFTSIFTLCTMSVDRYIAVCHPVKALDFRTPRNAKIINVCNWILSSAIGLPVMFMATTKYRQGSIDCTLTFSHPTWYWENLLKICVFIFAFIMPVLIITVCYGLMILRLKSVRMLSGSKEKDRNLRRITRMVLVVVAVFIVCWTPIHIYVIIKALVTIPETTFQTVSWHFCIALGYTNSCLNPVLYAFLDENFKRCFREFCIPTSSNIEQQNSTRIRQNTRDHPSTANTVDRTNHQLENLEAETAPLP
Sequence of Beta-lactamase (Salmonella choleraesuis (strain SC-B67), UniProt Q5J463) (Q5J463 whole entry): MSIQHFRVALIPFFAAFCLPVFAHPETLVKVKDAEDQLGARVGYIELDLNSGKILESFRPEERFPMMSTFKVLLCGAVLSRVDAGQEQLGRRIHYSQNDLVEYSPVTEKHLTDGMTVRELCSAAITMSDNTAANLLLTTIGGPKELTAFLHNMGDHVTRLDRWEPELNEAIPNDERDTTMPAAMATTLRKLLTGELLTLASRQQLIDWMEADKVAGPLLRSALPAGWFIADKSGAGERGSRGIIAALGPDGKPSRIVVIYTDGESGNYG
Sequence of 5-hydroxytryptamine receptor 2A (P35363 whole entry): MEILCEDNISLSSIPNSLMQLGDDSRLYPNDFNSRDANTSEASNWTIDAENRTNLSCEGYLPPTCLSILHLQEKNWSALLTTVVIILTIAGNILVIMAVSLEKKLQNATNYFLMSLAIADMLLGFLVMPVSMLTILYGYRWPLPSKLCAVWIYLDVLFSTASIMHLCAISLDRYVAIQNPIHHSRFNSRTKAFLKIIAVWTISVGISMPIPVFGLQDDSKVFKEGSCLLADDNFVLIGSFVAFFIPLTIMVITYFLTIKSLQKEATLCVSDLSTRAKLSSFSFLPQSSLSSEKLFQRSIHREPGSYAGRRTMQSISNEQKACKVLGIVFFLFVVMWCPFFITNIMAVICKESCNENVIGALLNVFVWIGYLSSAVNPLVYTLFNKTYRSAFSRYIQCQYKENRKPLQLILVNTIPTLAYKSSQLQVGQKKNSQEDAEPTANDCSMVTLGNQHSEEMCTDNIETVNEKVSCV

COc1ccccc1N1C(C)=CC(=C(C#N)c2nc3ccccc3s2)C=C1C
AC50 (INS1): 5.19 µM (active) | IC50 [1]: 9.58 µM (active) | EC50 [2]: 16.1 µM (active) | IC50 [3]: 4.86 µM (active)

COc1ccc2c3c(cccc13)C(=O)N(O)C2=O
EC50 [4]: 26.4 µM (inactive) | IC50 [5]: 35.2 µM (inactive) | Absolute IC50 (XBP1) (X-box-binding protein 1): 10 µM | EC50 [6]: > 91.2 µM (inactive) | IC50 [7]: > 66 µM (inactive)

N#CC(C#N)=C1C=C2C=C(N3CCCCCC3)CCC2CC1 (stereo not drawn)
EC50 (Insulin-degrading enzyme [8]): > 54.7 µM (inactive) | IC50 (HEK293 [9]): > 89.1 µM (inactive) | EC50 (Insulin-degrading enzyme [10]): > 54.7 µM (inactive) | EC50 (HEK293 [11]): > 54.7 µM (inactive) | IC50 (Beta-lactamase [12]): 2.78 µM (active) | IC50 (Beta-lactamase [13]): 1.04 µM (active)

C/C=C/c1ccc([C@H]2[C@H](CO)N[C@H]2CN(CC(C)C)C(=O)c2ccccn2)cc1
AC50 [14]: 5.62 µM (active)

CN1CCc2cc(O)c(O)cc2C(c2ccccc2)C1 (stereo not drawn)
EC50 [15]: 1.36 µM (active) | EC50 (Mu-type opioid receptor): 92.5 µM (inactive) | AC50 [16]: 35.5 µM (inconclusive)

c1ccc2c(NCCc3c[nH]c4ccccc34)c3ccccc3nc2c1
AC50 [17]: 3.17 µM (active) | EC50 [18]: 11.9 µM (active) | EC50 [19]: 7.86 µM (active) | EC50 [20]: 4.86 µM (active) | AC50 [21]: 1.41 µM (active) | EC50 (cells [22]): 29.3 µM (active) | EC50 (BJ [23]): 4.9 µM (active) | EC50 (cells [24]): > 350 µM (not active) | EC50 (BJ [25]): 8.56 µM (inconclusive) | EC50 [26]: 1.43 µM (active) | EC50 [27]: > 120 µM (not active) | EC50 (BJ [28]): 6.42 µM (inconclusive) | EC50 (H4): > 120 µM (not active) | AC50 [29]: 33.1 µM (active)
